Source: patent US5428013A, “Differential diagnosis and treatment of the states of growth hormone insufficiency (or deficiency) with an alpha-2-adrenergic agonist and a growth hormone releasing peptide” (priority 1992, dated 1995)
Where no end group is shown, it is not given here.

Experiments:
GH secretion [1] = test: Provocative tests for GH secretion in short children (clonidine, propranolol plus exercise, insulinic hypoglycemia, placebo plus GHRH, clonidine plus GHRH); format: in vivo
Text: Twenty-four children (17 boys and 7 girls) with stature below the third percentile (P3), participated in the study with informed consent (parent and child). Ages of the children ranged from 7 to 13.9 years. In all but seven of the children, weight was more than or equal to P3. […] Two children had received prophylactic cranial irradiation due to brain tumors, five and three years before the study. […] All children had been previously studied for their GH insufficiency. Studies included growth velocity, bone age, classical provocative tests for GH secretion (i.e. clonidine, insulin hypoglycemia and propranolol plus exercise), plasma somatomedin C (Sm C) (Insulin Growth Factor-I (IGF-I)) analysis, and analysis of the spontaneous pattern of nocturnal GH secretion.
Studies commenced at 09.00 h after an overnight fast and bed rest and thirty minutes after the insertion of a nonthrombogenic catheter for blood withdrawal in a forearm vein. The study consisted of administering clonidine (Catapresan, Boehringer Ingelheim, Spain) orally at 150 micrograms/m^2 at time 0, followed by administering GHRH (GRF 1-29, Serono, Spain) as an intravenous bolus at 1 microgram/kg at time 60 minutes. An additional control for short children consisted of administering a placebo at time 0, followed by administering GHRH at time 60 minutes. Blood samples for GH analysis (RIA, BioMerieux, France) were taken at 0 and 60 minutes and at 15 minute intervals for one hour following GHRH administration. The mean intra-assay coefficient of variation was 5.7, 3.2 and 4.3% at mean GH concentrations of 1.5, 10 and 22 micrograms/L respectively. To avoid interassay variations, all samples from a subject were run in the same assay.
To confirm the uniqueness of such combined clonidine plus GHRH test in the differentiation of GH-deficient states, the theoretical GH responses to this test in short children were calculated on the basis of the equation obtained from the multiple regression analysis relating chronological and bone age with the amplitude of GH peaks in normal children. […] Responses between the -20 to +20% range were considered to be normals, as they fitted between the standard deviation from the mean in the group of normal children.

GH secretion [2] = settings: cited from earlier work
[3] = Growth velocity of short children treated with GH; format: in vivo; settings: three children treated with GH for 9 months; increased from 3 cm/yr
Text: Twenty-four children (17 boys and 7 girls) with stature below the third percentile (P3), participated in the study with informed consent (parent and child). Ages of the children ranged from 7 to 13.9 years. In all but seven of the children, weight was more than or equal to P3. […] Two children had received prophylactic cranial irradiation due to brain tumors, five and three years before the study. Three children had been treated with GH for 9 months; their growth velocity increased during this therapy from 3 to 8 cm/yr. All children had been previously studied for their GH insufficiency. Studies included growth velocity, bone age, classical provocative tests for GH secretion (i.e. clonidine, insulin hypoglycemia and propranolol plus exercise), plasma somatomedin C (Sm C) (Insulin Growth Factor-I (IGF-I)) analysis, and analysis of the spontaneous pattern of nocturnal GH secretion. […] Mean (±SEM) plasma Sm C was 488±376 U/L. Mean (±SEM) growth velocity was 3.7±0.9 cm/yr.

[4] = patient group 1, short children
[5] = patient group 2, short children
[6] = patient group 3, short children
[7] = patient group 4, short children
[8] = patient group 5, short children

Compound | Number of positive (+, >10 μg/L) GH responses (GH secretion [1]; [4]) | Number of positive (+, >10 μg/L) GH responses (GH secretion [1]; [5]) | Number of positive (+, >10 μg/L) GH responses (GH secretion [1]; [6]) | Number of positive (+, >10 μg/L) GH responses (GH secretion [1]; [7]) | Number of positive (+, >10 μg/L) GH responses (GH secretion [1]; [8]) | also measured
GHRH: growth hormone-releasing hormone, used as GRF 1-29 (Serono, Spain), intravenous bolus (YADAIFTNSYRKVLGQLSARKLLQDIMSR; ends and bridges not checked; UniProt P01286 32-60, looked up, fragment) | 2 | 3 | 3 | 3 | 3 | Number of patients with deficient GHRH-induced GH response (GH peak <10 μg/L) (GH secretion [1]; 24 short children, pretreatment with placebo): 9 patients; Number of negative (-, <10 μg/L) GH responses (GH secretion [1]; [4]): 4; Number of negative (-, <10 μg/L) GH responses (GH secretion [1]; [5]): 2; Mean GH peak response to GHRH (GH secretion [1]; short children, placebo at time 0, GHRH i.v. bolus at 60 minutes): 19.5 ± 15.7 µg/L
CN(C)C(=O)Oc1ccc[n+](C)c1 [pyridostigmine] |  |  |  |  |  | Usefulness as treatment of short stature (GH secretion [2]; literature (Ghigo 1989)): does not represent a useful treatment of short stature
Clc1cccc(Cl)c1NC1=NCCN1 [clonidine, 2-(2,6-dichloroanilino)-2-imidazoline] | 0 | 4 | 2 | 3 | 1 | Share of children appearing GH-deficient on the basis of a low GH response (<10 μg/L) to the provocative test (GH secretion [1]; 24 short children, earlier work-up): 50%; Number of negative (-, <10 μg/L) GH responses (GH secretion [1]; [6]): 2; Effect of pretreatment with clonidine on the GH response to GHRH (GH secretion [1]; patient group 5, malnourished children): did not significantly enhance the GH response to GHRH; Effect on GHRH-induced GH secretion (GH secretion [2]; normal subjects, short, normal children and adults (literature)): enhances the GH response to GHRH
GH: exogenous growth hormone given to three children for 9 months |  |  |  |  |  | Growth velocity during GH therapy [3]: 8 cm/yr
